Assay results taken from patent US20090004232A1, “BIOACTIVE PHARMACEUTICAL/COSMETIC COMPOSITIONS AND MIXED SOLUBILIZATION PROCESS FOR THE FORMULATION THEREOF” (priority 2005, published 2009).

Test: Physical stability of the emulsions on storage (phase shift, recrystallization / crystal growth of the active principle)
Assay type: physicochemical
Protocol: According to the invention, another physical stability parameter observed is, in particular, the absence of recrystallization phenomenon at ambient temperature and at 4° C., over three months.
In the present text, the expression “active principle in dissolved form” means a molecular state dispersion in a liquid, no crystallization of the active principle being visible to the naked eye nor even using a crossed polarization optical microscope, or using other more accurate techniques such as electron microscopy. Preferably, the bioactive principle particles have a size below 1 nm.
Preferably, according to the invention, the expression “active principle in dissolved form” means a molecular state dispersion in a liquid for which no crystallization of the active principle is visible to the naked eye or using an optical microscope.

crystal growth phenomena of the active principle (single phase solubilization, storage at 4° C.): appeared from the first month
SMILES: CC/C(=C\C=C\C(O)(CC)CC)c1cccc(OCc2ccc(CO)c(CO)c2)c1 [(4E,6E)-7-[3-(3,4-bishydroxymethylbenzyloxy)phenyl]-3-ethylnona-4,6-dien-3-ol]
physical stability of the emulsion over time (active principle solubilized in a single phase (hydrophilic phase or lipophilic phase)): have not made it possible to obtain an emulsion that was physically stable over time
